# Assay: Pharmacokinetics after inhalation of 5-MeO-DMT, LC-MS/MS
# Type: in vivo, human
# Details: for plasma concentration as % of Cmax: whole dose range 6, 12, 18 mg
smiles,measurement,setting,value
COc1ccc2[nH]cc(CCN(C)C)c2c1 [5-MeO-DMT],plasma concentration as % of Cmax,10 minutes after inhalation,≤ 10%
same,plasma concentration as % of Cmax,2 hours after inhalation,≤ 1%
same,accumulation upon repeated administration,repeated administration within a time frame of 1 to 4 hours,No accumulation is observed

# Reference: patent US20250235427A1, “5-METHOXY-N,N-[…][…] THE TREATMENT OF SOCIAL/EMOTIONAL […] DETACHMENT” (GH RESEARCH IRELAND LIMITED, priority 2022, published 2025)
